Experimental data from ChEMBL document CHEMBL4340579, “HPLC-DAD-Directed Isolation of Linearly Fused Prenylated Indole Alkaloids from a Soil-Derived Aspergillus versicolor” (J Nat Prod, 2019).

How the values were obtained:
MCF7 = assay: Cytotoxicity in human MCF7 cells assessed as reduction in cell viability incubated for 3 days by MTT assay; type: functional, cell-based
A549 = assay: Cytotoxicity in human A549 cells assessed as reduction in cell viability incubated for 3 days by MTT assay; type: functional, cell-based
HepG2 = assay: Cytotoxicity in human HepG2 cells assessed as reduction in cell viability incubated for 3 days by MTT assay; type: functional, cell-based
HeLa = assay: Cytotoxicity in human HeLa cells assessed as reduction in cell viability incubated for 3 days by MTT assay; type: functional, cell-based
NCM460 = assay: Cytotoxicity in human NCM460 cells assessed as reduction in cell viability incubated for 3 days by MTT assay; type: cell-based
[1] = Homo sapiens, HeLa, 72 h, read-out: IC50

| Compound | IC50 (MCF7; mcf7) | IC50 (A549; a549) | IC50 (HepG2; hepg2) | IC50 (HeLa; hela) | IC50 (NCM460; ncm460) | IC50 (HeLa; [1]) [nM] | IC50 (MCF7; Homo sapiens, MCF7, 72 h, read-out: IC50) [nM] | IC50 (A549; Homo sapiens, A549, 72 h, read-out: IC50) [nM] | IC50 (HepG2; Homo sapiens, HepG2, 72 h, read-out: IC50) [nM] | IC50 (NCM460; Homo sapiens, NCM460, 72 h, read-out: IC50) [nM] |
| --- | --- | --- | --- | --- | --- | --- | --- | --- | --- | --- |
| C=CC(C)(C)[C@]1(CC2(O)NC(=O)C3CCCN3C2=O)C(=O)Nc2cc3c(cc21)C=CC(C)(C)O3 (stereo not given in full) | Not Active | Not Active | Not Active | Not Active | Non-Toxic |  |  |  |  |  |
| C=CC(C)(C)[C@@]12Nc3cc4c(cc3[C@]1(O)C[C@H]1C(=O)N3CCC[C@H]3C(=O)N12)C=CC(C)(C)O4 | Not Active | Not Active | Not Active | Not Active | Non-Toxic |  |  |  |  |  |
| C=CC(C)(C)[C@@]12Nc3cc4c(cc3[C@]1(O)C[C@]1(O)C(=O)N3CCC[C@H]3C(=O)N21)C=CC(C)(C)O4 | Not Active | Not Active | Not Active | Not Active | Non-Toxic |  |  |  |  |  |
| C=CC(C)(C)c1[nH]c2cc3c(cc2c1C=O)C=CC(C)(C)O3 | Not Active | Not Active | Not Active |  | Non-Toxic | 6400 |  |  |  |  |
| C=CC(C)(C)[C@@]12Nc3cc4c(cc3[C@]1(O)C[C@]1(NC(=O)[C@H]3CCCN3C1=O)O2)C=CC(C)(C)O4 | Not Active | Not Active | Not Active |  | Non-Toxic | 7300 |  |  |  |  |
| C=CC(C)(C)[C@]1(CC2NC(=O)C3(O)CCCN3C2=O)C(=O)Nc2cc3c(cc21)C=CC(C)(C)O3 (stereo not given in full) | Not Active | Not Active | Not Active | Not Active | Non-Toxic |  |  |  |  |  |
| C=CC(C)(C)[C@]1(C[C@@H]2NC(=O)[C@@H]3CCCN3C2=O)C(=O)Nc2cc3c(cc21)C=CC(C)(C)O3 | Not Active | Not Active | Not Active | Not Active | Non-Toxic |  |  |  |  |  |
| C=CC(C)(C)[C@]1(C[C@]2(OC)NC(=O)[C@@H]3CCCN3C2=O)C(=O)Nc2cc3c(cc21)C=CC(C)(C)O3 | Not Active | Not Active | Not Active | Not Active | Non-Toxic |  |  |  |  |  |
| C=CC(C)(C)[C@@]1(C[C@@H]2NC(=O)[C@@H]3CCCN3C2=O)C(=O)Nc2cc3c(cc21)C=CC(C)(C)O3 | Not Active | Not Active | Not Active | Not Active | Non-Toxic |  |  |  |  |  |
| CC(=O)O[C@H]1C(=O)[C@@]2(C)[C@H]([C@H](OC(=O)c3ccccc3)[C@]3(O)C[C@H](OC(=O)[C@H](O)[C@@H](NC(=O)c4ccccc4)c4ccccc4)C(C)=C1C3(C)C)[C@]1(OC(C)=O)CO[C@@H]1C[C@@H]2O [PACLITAXEL] |  |  |  |  |  | < 8 | < 8 | < 8 | < 8 | < 8 |
